Reference: publication PMC4704022, “Insights on FXR selective modulation. Speculation on bile acid chemical space in the discovery of potent and selective agonists” (Scientific Reports, 2016)
“Also recorded” adds a separate entry of the source.

How the values were obtained:
[1] = biological target: T1, FXR-LBD (Homo sapiens, UniProt Q96RI1); assay: Alphascreen coactivator recruitment assay, FXR-LBD with SRC-1 peptide; type: biochemical; settings: ligand at 2 μM, effect of 6 set as 100%
T1 construct: 10 nM of purified GST-tagged FXR-LBD protein
T1 sequence (Q96RI1 262-486 limits assumed): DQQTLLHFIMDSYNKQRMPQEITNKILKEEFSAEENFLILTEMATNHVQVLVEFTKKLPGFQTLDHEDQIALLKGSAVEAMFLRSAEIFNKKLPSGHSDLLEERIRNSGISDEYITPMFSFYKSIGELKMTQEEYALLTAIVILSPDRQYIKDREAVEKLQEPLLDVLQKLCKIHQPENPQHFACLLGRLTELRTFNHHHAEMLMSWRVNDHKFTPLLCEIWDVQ
Procedure: Figure 7 Coactivator recruitment assay measuring a direct interaction of FXR with SRC-1. Anti-GST-coated acceptor beads captured GST-fusion FXR-LBD and the biotinylated-SRC-1 peptide was captured by the streptavidin donor beads. FXR-LBD recruited SRC-1 in the presence of ligand at 2 μM and, upon illumination at 680 nm, chemical energy is transferred from donor to acceptor beads across the complex streptavidin-donor/Src-1-biotin/ligand/GSTFXR-LBD/anti-GST-acceptor and a signal is produced. Results are expressed as percentage of the effect of 6 arbitrarily settled as 100%. NT is referred to the experiment carried out in absence of ligand. Results are expressed as mean ± standard error.
The relative potency of selected members of this novel family was then investigated by a detailed measurement of concentration-response curve of the 3-deoxy sulfate derivative 9, the corresponding carboxylic acid 10, and the 3β-hydroxyl alcohol 15 and carboxylic acid derivative 17, all sharing the 6α/7α configuration, on FXR transactivation. […] In this assay, the ligand induces the recruitment of the coactivator to the LBD of hFXR.
Anti-GST-coated acceptor beads were used to capture the GST-fusion FXR-LBD, whereas the biotinylated-SRC-1 peptide was captured by the streptavidin donor beads. Upon illumination at 680 nm, chemical energy is transferred from donor to acceptor beads across the complex streptavidin-donor/Src-1-biotin/GSTFXR-LBD/anti-GST-acceptor and a signal is produced. The assay was performed in white, low-volume, 384-well Optiplates (PerkinElmer) using a final volume of 25 μL containing final concentrations of 10 nM of purified GST-tagged FXR-LBD protein, 30 nM biotinylated Src-1 peptide, 20 μg/mL anti-GST acceptor beads acceptor beads, and 10 μg/mL of streptavidin donor bead (PerkinElmer). The assay buffer contained 50 mM Tris (pH 7.4), 50 mM KCl, 0.1% BSA, and 1 mM DTT. […] After the addition of the detection mix (acceptor and donor beads), the plates were incubated in the dark for 4 h at room temperature and then were read in an Envision microplate analyzer (PerkinElmer).

[2] = biological target: T2, GPBAR1 (Homo sapiens, UniProt Q8TDU6); assay: GPBAR1 agonism, CRE-luciferase transactivation assay in transfected HEK-293T cells; type: cell-based; settings: HEK-293T, compounds at 10 μM; TLCA 10 μM as positive control
T2 construct: expressed in transfected cells; host or cells: HEK-293T
T2 sequence (Q8TDU6 1-330): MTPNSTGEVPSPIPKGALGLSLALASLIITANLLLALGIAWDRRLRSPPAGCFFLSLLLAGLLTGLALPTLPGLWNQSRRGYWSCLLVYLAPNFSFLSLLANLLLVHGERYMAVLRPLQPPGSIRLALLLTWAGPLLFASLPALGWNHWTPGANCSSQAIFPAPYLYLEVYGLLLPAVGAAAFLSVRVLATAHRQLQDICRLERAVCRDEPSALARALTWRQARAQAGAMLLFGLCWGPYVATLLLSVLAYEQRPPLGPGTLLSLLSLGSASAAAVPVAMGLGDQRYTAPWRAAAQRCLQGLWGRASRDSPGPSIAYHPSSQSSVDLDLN
Procedure: (A) HEK-293T cells were co-transfected with GPBAR1 and a reporter gene containing a cAMP responsive element in front of the luciferase gene. Twenty-four hour post transfection cells were stimulated with 7–21 (10 μM). Luciferase activity served as a measure of the rise in intracellular cAMP following activation of GPBAR1. […] Twenty-four hour post transfection cells were stimulated with increasing concentrations of each agent: range from 100 nM to 50 μM. Results are expressed as mean ± standard error.
(§1) To investigate GPBAR1 activation, HEK-293T cells were transiently transfected with Fugene HD reagent (Promega) using the following vectors: pCMVSPORT6-human GPBAR1, pGL4.29 (Promega), a reporter vector containing a cAMP response element (CRE) cloned upstream to the luciferase reporter gene luc2P and pGL4.70. […] Dose-response curves were performed in HEK-293T cells transfected as described above and treated with increasing concentrations of 9 and 21 (from 100 nM to 50 μM). […] At 18 h post stimulations, cellular lysate was assayed for luciferase and renilla activities using the Dual-Luciferase Reporter assay system (E1980, Promega). Luminescence was measured using Glomax 20/20 luminometer (Promega). Luciferase activities were normalized with Renilla activities.

[3] = tested on: FXR target genes (OSTα, SHP, BSEP); assay: In vivo effect on FXR target genes in mouse liver (Real-Time PCR); set-up: species or system C57BL6 mice; settings: mice, 15 mg/kg ip, 6 h, versus control mice
Procedure: Figure 10 In vivo effect of 10 on FXR target genes. C57BL6 mice were administered with 10 (15 mg/Kg) for 6 h. After treatment liver were removed and the relative mRNA expression of OSTα, SHP and BSEP was assayed by quantitative Real-Time PCR. *p < 0.05 versus control mice.
C57BL6 mice were administered with compound 10 (15 mg/kg, ip). At 6 h post-treatment, livers and blood were collected.
Total RNA was extracted using the TRIzol reagent (Life Technologies). First, 1 μg of RNA was purified of the genomic DNA by DNase I treatment (Life Technologies) and random reverse-transcribed with Superscript II (Life Technologies) in a 20 μL reaction volume. Then 10 ng of cDNA was amplified in a final volume of 20 μL in a mix containing 200 nM of each sense/antisense primers and 10 μL of 2× SYBR Select Master mix (Life Technologies). RT-PCR reactions were performed in duplicate and the thermal cycling conditions were: 2 min at 95 °C, followed by 40 cycles of 95 °C for 20 s, 60 °C for 30 s on Step One Plus Instrument (ABI). The relative mRNA expression was calculated and expressed as 2^−(ΔΔCt). Sense and antisense primer sequences were the following: mouse GAPDH, […] and […]; mOSTα, […] and […]; mBSEP, […] and […]; mSHP, […] and […].

[4] = biological target: T2, GPBAR1; assay: GPBAR1 antagonism, transactivation assay in HEK-293T cells stimulated with TLCA; type: cell-based
Text: Figure 9 Antagonism on GPBAR1 by transactivation assay. (A) HEK-293T cells were transfected as described in Fig. 8. […] Results are expressed as mean ± standard error.
as §1

Compound: CC[C@H]1[C@@H](O)[C@@H]2[C@H](CC[C@]3(C)[C@@H]([C@H](C)CCC(=O)O)CC[C@@H]23)[C@@]2(C)CCCC[C@@H]12 [compound 10, 6α-ethyl-7α-hydroxy-5β-cholan-24-oic acid]
- Recruitment of SRC-1 coactivator to FXR-LBD (in words) [1]: very potent activity in the recruitment of SRC-1 co-activator
- GPBAR1 agonism (in words) [2]: inactive towards GPBAR1 in agonistic mode; also recorded: devoid of any activity toward GPBAR1 in agonistic mode
- Relative mRNA expression of BSEP in liver [3]: significantly up-regulated; also recorded: increased the expression
- Relative mRNA expression of OSTα in liver [3]: significantly up-regulated; also recorded: increased the expression
- Relative mRNA expression of SHP in liver [3]: significantly up-regulated; also recorded: increased the expression
- GPBAR1 antagonism (in words) ([4]; HEK-293T, 10 μM TLCA in combination with 25 μM compound): showed inhibitory activity against GPBAR1 transactivation induced by TLCA
- IC50 ([4]; read-out: IC50, antagonism of TLCA-induced GPBAR1 transactivation): 11 µM
